# Reference: US9604940B2 (Chroma Therapeutics Ltd., priority 2012, dated 2017)
# Structures can show the parent of a compound that is named as a salt.
# Experiments:
# MCP-1 = assay: MCSF-stimulation of human whole blood, MCP-1 levels by sandwich ELISA; assay type: cell-based; settings: inhibitor 2 hours before MCSF 50 ng/ml, 22 hrs, MCP-1 in cell-free supernatants, read-out: Inhibitor activity versus MCP-1
# Experimental: Macrophage Colony-Stimulating Factor (MCSF)-Stimulation of Human Whole Blood
# Whole blood was taken by venous puncture using heparinised vacutainers (Becton Dickinson) and diluted in an equal volume of RPMI1640 tissue culture media (Sigma). 100 μl was plated in V-bottomed 96 well tissue culture treated plates. 2 hours after the addition of the inhibitor in 100 μl of RPMI1640 media, the blood was stimulated with MCSF (Peprotech: #300-25-10 uG) at a final concentration of 50 ng/ml and incubated at 37° C. in 5% CO2 for 22 hrs. MCP-1 levels were measured from cell-free supernatants by sandwich ELISA developed from MCP-1/CCL2 Duoset (R&D Systems #DY279). Additional reagents required for ELISA were purchased from Sigma, (BSA: A3059, 10×PBS: D1408, Tween20: P5927) R&D Systems, (colour reagent: #DY999 and stop solution: #DY994) and Costar (96-well EIA plates: #2592). Assays were carried out following the manufacturer's instructions with the following modifications: Cell-free supernatants were diluted 30:70 in reagent diluent before assay. All incubations except capture antibody were carried out with shaking at 550 rpm. 3 washes were carried out between steps, and incubation times were blocking 1.5 hr, sample/standard and detection antibody incubations 2 hr, HRP incubation 30 min, colour development 20 min. • IC50 values were allocated to one of five ranges as follows: • Range A: IC50<100 nM • Range B: 100 nM<IC50<300 nM • Range C: 300 nM<1050<1000 nM • Range D: 1000 nM<IC50<5000 nM • Range E: IC50>5000 nM • NT=not tested
# CSF1R (FMS) = target: T1, CSF1R (FMS) (Homo sapiens, UniProt P07333); assay: CSF1R (FMS) kinase activity, Z'-LYTE biochemical assay (Invitrogen); settings: ATP at or close to Km, 60 minute reaction at room temperature, read-out: Inhibitor activity versus CSF-1
# T1 construct: purchased Invitrogen (Paisley, UK)
# T1 sequence (P07333 20-972): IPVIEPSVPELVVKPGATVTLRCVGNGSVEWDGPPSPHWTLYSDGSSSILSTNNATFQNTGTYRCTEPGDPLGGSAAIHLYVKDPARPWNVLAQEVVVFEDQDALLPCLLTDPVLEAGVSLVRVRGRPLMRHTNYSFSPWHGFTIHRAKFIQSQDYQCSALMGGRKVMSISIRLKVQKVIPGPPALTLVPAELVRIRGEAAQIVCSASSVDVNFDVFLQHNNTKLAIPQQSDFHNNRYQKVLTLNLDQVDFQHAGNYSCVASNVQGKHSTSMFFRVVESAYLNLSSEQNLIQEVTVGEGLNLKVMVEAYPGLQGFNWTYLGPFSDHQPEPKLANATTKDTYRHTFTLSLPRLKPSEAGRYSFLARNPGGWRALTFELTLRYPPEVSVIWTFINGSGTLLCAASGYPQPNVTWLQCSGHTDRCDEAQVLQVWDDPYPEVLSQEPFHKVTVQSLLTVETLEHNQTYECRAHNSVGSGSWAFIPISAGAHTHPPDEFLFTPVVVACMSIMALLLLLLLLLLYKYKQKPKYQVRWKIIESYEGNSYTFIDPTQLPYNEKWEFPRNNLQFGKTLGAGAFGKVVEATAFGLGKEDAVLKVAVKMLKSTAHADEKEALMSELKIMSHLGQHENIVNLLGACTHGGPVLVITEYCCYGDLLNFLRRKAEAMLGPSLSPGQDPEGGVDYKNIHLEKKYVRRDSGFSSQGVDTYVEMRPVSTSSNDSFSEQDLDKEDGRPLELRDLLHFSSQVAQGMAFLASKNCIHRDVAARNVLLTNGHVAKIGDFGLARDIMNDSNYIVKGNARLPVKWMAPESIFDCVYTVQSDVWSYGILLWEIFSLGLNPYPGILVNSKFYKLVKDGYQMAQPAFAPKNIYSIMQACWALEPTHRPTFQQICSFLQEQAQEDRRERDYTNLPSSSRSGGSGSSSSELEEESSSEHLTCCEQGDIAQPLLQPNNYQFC
# Experimental: CSF1R (FMS) Kinase Activity
# The ability of compounds to inhibit CSF1R (FMS) kinase activity was measured in an assay performed by Invitrogen (Paisley, UK). The Z′-LYTE™ biochemical assay employs a fluorescence-based, coupled-enzyme format and is based on the differential sensitivity of phosphorylated and non-phosphorylated peptides to proteolytic cleavage. The peptide substrate is labelled with two fluorophores—one at each end—that make up a FRET pair. In the primary reaction, the kinase transfers the gamma-phosphate of ATP to a single […] residue in a synthetic FRET-peptide. In the secondary reaction, a site-specific protease recognizes and cleaves non-phosphorylated FRET-peptides. Phosphorylation of FRET-peptides suppresses cleavage by the Development Reagent. Cleavage disrupts FRET between the donor (i.e. coumarin) and acceptor (i.e. fluorescein) fluorophores on the FRET-peptide, whereas uncleaved, phosphorylated FRET-peptides maintain FRET. A […] method, which calculates the ratio (the Emission Ratio) of donor emission to acceptor emission after excitation of the donor fluorophore at 400 nm, is used to quantitate reaction progress.
# The final 10 μL Kinase Reaction consists of 0.12-12.3 ng CSF1R (FMS), 2 μM Tyr 01 Peptide and ATP in 50 mM HEPES pH 7.5, 0.01% BRIJ-35, 10 mM MgCl2, 1 mM EGTA. The assay is performed at an ATP concentration at, or close to, the Km. After the 60 minute Kinase Reaction incubation at room temperature, 5 μL of a 1:256 dilution of Development Reagent is added. The assay plate is incubated for a further 60 minutes at room temperature and read on a fluorescence plate reader.
# Duplicate data points are generated from a ⅓ log dilution series of a stock solution of test compound in DMSO. Nine dilutions steps are made from a top concentration of 10 mM, and a ‘no compound’ blank is included. Data is collected and analysed using XLfit software from IDBS. The dose response curve is curve fitted to model number 205 (sigmoidal dose-response model). From the curve generated, the concentration giving 50% inhibition is determined and reported.
structure (smiles),measurement,setting,value
"Nc1ncc(-c2cccc(CCNC3CCN[C@@H](C(=O)OC4CCCC4)C3)c2)nc1NCc1c(Cl)cccc1Cl (stereo partly drawn) [Example 50, Cyclopentyl (2R)-4-{[2-(3-{5-amino-6-[(2,6-dichlorobenzyl)amino]pyrazin-2-yl}phenyl)ethyl]amino}piperidine-2-carboxylate]",IC50,MCP-1,100 to 300 nM
same,IC50,CSF1R (FMS),< 100 nM
"C[C@H](NCc1cccc(-c2cnc(N)c(NCc3c(Cl)cccc3Cl)n2)c1)C(=O)OC(C)(C)C [Example 45, tert-Butyl N-(3-{5-amino-6-[(2,6-dichlorobenzyl)amino]pyrazin-2-yl}benzyl)-L-alaninate]",IC50,MCP-1,1000 to 5000 nM
same,IC50,CSF1R (FMS),1000 to 5000 nM
"CC(C)(C)OC[C@H](NCc1cccc(-c2cnc(N)c(NCc3c(Cl)cccc3Cl)n2)c1)C(=O)OC(C)(C)C [Example 44, tert-Butyl N-(3-{5-amino-6-[(2,6-dichlorobenzyl)amino]pyrazin-2-yl}benzyl)-O-tert-butyl-L-serinate]",IC50,MCP-1,> 5000 nM
same,IC50,CSF1R (FMS),> 5000 nM
"Nc1ncc(-c2cccc(CN3CCN[C@@H](C(=O)OC4CCCC4)C3)c2)nc1NCc1c(Cl)cccc1Cl [Example 37, Cyclopentyl (2R)-4-(3-{5-amino-6-[(2,6-dichlorobenzyl)amino]pyrazin-2-yl}benzyl)piperazine-2-carboxylate]",IC50,MCP-1,< 100 nM
same,IC50,CSF1R (FMS),300 to 1000 nM
"CC(C)C[C@H](NCc1ccc(-c2cnc(N)c(NCc3c(Cl)cccc3Cl)n2)cc1)C(=O)OC1CCCC1 [Example 12, Cyclopentyl N-(4-{5-amino-6-[(2,6-dichlorobenzyl)amino]pyrazin-2-yl}benzyl)-L-leucinate]",IC50,CSF1R (FMS),> 5000 nM
"Nc1ncc(-c2ccc(CNC3CCN[C@@H](C(=O)OC4CCCC4)C3)cc2)nc1NCc1c(F)cccc1Cl (stereo partly drawn) [Example 17, Cyclopentyl (2R)-4-[(4-{5-amino-6-[(2-chloro-6-fluorobenzyl)amino]pyrazin-2-yl}benzyl)amino]piperidine-2-carboxylate]",IC50,CSF1R (FMS),< 100 nM
"Nc1ncc(-c2cccc(CCNC3CCN[C@H](C(=O)OC4CCCC4)C3)c2)nc1NCc1c(Cl)cccc1Cl (stereo partly drawn) [Example 51, Cyclopentyl (2S)-4-{[2-(3-{5-amino-6-[(2,6-dichlorobenzyl)amino]pyrazin-2-yl}phenyl)ethyl]amino}piperidine-2-carboxylate]",IC50,MCP-1,100 to 300 nM
same,IC50,CSF1R (FMS),< 100 nM
"CC(C)(NCCc1cccc(-c2cnc(N)c(NCc3c(Cl)cccc3Cl)n2)c1)C(=O)OC1CCCC1 [Example 48, Cyclopentyl N-[2-(3-{5-amino-6-[(2,6-dichlorobenzyl)amino]pyrazin-2-yl}phenyl)ethyl]-2-methylalaninate]",IC50,MCP-1,300 to 1000 nM
same,IC50,CSF1R (FMS),1000 to 5000 nM
"CC(C)C[C@H](NCc1ccc(-c2cnc(N)c(NCc3c(F)cccc3F)n2)cc1)C(=O)OC1CCCC1 [Example 15, Cyclopentyl N-(4-{5-amino-6-[(2,6-difluorobenzyl)amino]pyrazin-2-yl}benzyl)-L-leucinate]",IC50,CSF1R (FMS),> 5000 nM
"Nc1ncc(-c2ccc(CN3CCNC(C(=O)OC4CCCC4)C3)cc2)nc1NCc1c(Cl)cccc1Cl (stereo not drawn) [Example 9, Cyclopentyl 4-(4-{5-amino-6-[(2,6-dichlorobenzyl)amino]pyrazin-2-yl}benzyl)piperazine-2-carboxylate]",IC50,MCP-1,< 100 nM
same,IC50,CSF1R (FMS),300 to 1000 nM
"CCc1cc(-c2cnc(N)c(NCc3c(Cl)cccc3Cl)n2)ccc1CN1CCNC(C(=O)OC2CCCC2)C1 (stereo not drawn) [Example 20, Cyclopentyl 4-(4-{5-amino-6-[(2,6-dichlorobenzyl)amino]pyrazin-2-yl}-2-ethylbenzyl)piperazine-2-carboxylate]",IC50,MCP-1,< 100 nM
same,IC50,CSF1R (FMS),1000 to 5000 nM
"Nc1ncc(-c2ccc(CN3CCN[C@@H](C(=O)OC4CCCC4)C3)cc2)nc1NCc1c(Cl)cccc1Cl [Example 11, Cyclopentyl (2R)-4-(4-{5-amino-6-[(2,6-dichlorobenzyl)amino]pyrazin-2-yl}benzyl)piperazine-2-carboxylate]",IC50,MCP-1,< 100 nM
same,IC50,CSF1R (FMS),300 to 1000 nM
"Nc1ncc(-c2ccc(C(=O)NC3CCN[C@@H](C(=O)OC4CCCC4)C3)cc2)nc1NCc1c(Cl)cccc1Cl (stereo partly drawn) [Example 1, Cyclopentyl (2R)-4-[(4-{5-amino-6-[(2,6-dichlorobenzyl)amino]pyrazin-2-yl}benzoyl)amino]piperidine-2-carboxylate]",IC50,MCP-1,300 to 1000 nM
same,IC50,CSF1R (FMS),< 100 nM
"CC(C)C[C@H](NCc1ccc(-c2cnc(N)c(NCc3c(Cl)cccc3Cl)n2)cc1)C(=O)OC(C)(C)C [Example 13, tert-Butyl N-(4-{5-amino-6-[(2,6-dichlorobenzyl)amino]pyrazin-2-yl}benzyl)-L-leucinate]",IC50,CSF1R (FMS),1000 to 5000 nM
"CC(C)CN(Cc1ccc(-c2cnc(N)c(NCc3c(Cl)cccc3Cl)n2)cc1)C1CCN[C@@H](C(=O)OC2CCCC2)C1 (stereo partly drawn) [Example 29, Cyclopentyl (2R)-4-[(4-{5-amino-6-[(2,6-dichlorobenzyl)amino]pyrazin-2-yl}benzyl)(2-methylpropyl)amino]piperidine-2-carboxylate]",IC50,MCP-1,1000 to 5000 nM
"CC(C)(C)OC(=O)[C@H]1CC(NCc2ccc(-c3cnc(N)c(NCc4c(F)cccc4F)n3)cc2)CCN1 (stereo partly drawn) [Example 24, tert-Butyl (2R)-4-[(4-{5-amino-6-[(2,6-difluorobenzyl)amino]pyrazin-2-yl}benzyl)amino]piperidine-2-carboxylate]",IC50,CSF1R (FMS),300 to 1000 nM
"Nc1ncc(-c2cnn(CC(=O)NC3CCN[C@@H](C(=O)OC4CCCC4)C3)c2)nc1NCc1c(Cl)cccc1Cl (stereo partly drawn) [Example 53, Cyclopentyl (2R)-4-{[(4-{5-amino-6-[(2,6-dichlorobenzyl)amino]pyrazin-2-yl}-1H-pyrazol-1-yl)acetyl]amino}piperidine-2-carboxylate]",IC50,CSF1R (FMS),100 to 300 nM
"CC(C)C[C@H](NCc1ccc(-c2cnc(N)c(NCc3c(F)cccc3F)n2)cc1)C(=O)OC(C)(C)C [Example 16, tert-Butyl N-(4-{5-amino-6-[(2,6-difluorobenzyl)amino]pyrazin-2-yl}benzyl)-L-leucinate]",IC50,CSF1R (FMS),1000 to 5000 nM
"CC(C)(C)OC(=O)[C@H]1CC(NC(=O)c2ccc(-c3cnc(N)c(NCc4c(Cl)cccc4Cl)n3)cc2)CCN1 (stereo partly drawn) [Example 4, tert-Butyl (2R)-4-[(4-{5-amino-6-[(2,6-dichlorobenzyl)amino]pyrazin-2-yl}benzoyl)amino]piperidine-2-carboxylate]",IC50,CSF1R (FMS),100 to 300 nM
"CC(C)(C)OC(=O)[C@H]1CC(NC(=O)Cn2cc(-c3cnc(N)c(NCc4c(Cl)cccc4Cl)n3)cn2)CCN1 (stereo partly drawn) [Example 54, tert-Butyl (2R)-4-{[(4-{5-amino-6-[(2,6-dichlorobenzyl)amino]pyrazin-2-yl}-1H-pyrazol-1-yl)acetyl]amino}piperidine-2-carboxylate]",IC50,CSF1R (FMS),100 to 300 nM
"Nc1ncc(-c2cccc(CCN3CCNC(C(=O)OC4CCCC4)C3)c2)nc1NCc1c(Cl)cccc1Cl (stereo not drawn) [Example 52, Cyclopentyl 4-[2-(3-{5-amino-6-[(2,6-dichlorobenzyl)amino]pyrazin-2-yl}phenyl)ethyl]piperazine-2-carboxylate]",IC50,MCP-1,100 to 300 nM
"Nc1ncc(-c2ccc(CN3CCNC(C(=O)OC4CCCC4)C3)nc2)nc1NCc1c(Cl)cccc1Cl (stereo not drawn) [Example 59, Cyclopentyl 4-[(5-{5-amino-6-[(2,6-dichlorobenzyl)amino]pyrazin-2-yl}pyridin-2-yl)methyl]piperazine-2-carboxylate]",IC50,CSF1R (FMS),100 to 300 nM
"CC(C)(C)OC(=O)C(C)(C)NCc1cccc(-c2cnc(N)c(NCc3c(Cl)cccc3Cl)n2)c1 [Example 41, tert-Butyl N-(3-{5-amino-6-[(2,6-dichlorobenzyl)amino]pyrazin-2-yl}benzyl)-2-methylalaninate formate salt]",IC50,CSF1R (FMS),1000 to 5000 nM
